Data set [1] can be described thus: Evans blue dye (EBD) delivery to tumor, thermal enhancement ratio (TER). In kind it is in vivo, mice. The protocol:
Mouse sarcoma S-180 cells were propagated by intraperitoneal injection (5×10^6 S-180 cells in 1 ml phosphate buffered saline (PBS)) in female CD-1 mice (4-6 weeks old) and allowed to grow until 15% weight gain was observed. Animals were then euthanized by CO2 gas inhalation and the cells were harvested from the abdominal cavity. The cells were then washed to remove blood, diluted and subcutaneously injected into each flank of the animal (2×10^6 cells/flank in 200 μl PBS) while anesthetized with isofluorane. Tumors were then allowed to grow until average tumor volume reached 50-100 mm^3 (usually 7-10 days).
The animals were separated randomly into groups. Half received 200 μl of GNRs (9.6 mg/kg, OD=120) and the other half saline by intravenous injection through the tail vein. After 24 hours, enough time for the GNRs to accumulate in the tumor at 1.22% injected dosed based on previous experiments and other reports in the literature (Dickerson et al., 2008), the animals were anesthetized and the areas around the tumors were shaved and swabbed with 50% propylene glycol to enhance laser penetration depth. After 20 minutes EBD (10 mg/kg in 200 μl saline) was injected intravenously and a 33 gauge needle thermocouple (Omega #HYPO-33-1-T-G-60-SMPW-M) was inserted into the center of the tumor to monitor tumor temperatures. After roughly 10 seconds that temperature data was collected, an 808 nm fiber coupled laser diode (Oclaro #BMU6-808-02-R01) with collimating lens (Thorlabs #F810SMA-780, spot size=7 mm) was directed over the right tumor and radiated. Two different laser powers were used in this study (1.6 and 1.2 W/cm^2) such that one group received severe and the other moderate tumor hyperthermia. After 10 minutes of radiation, the laser was turned off and tumors were allowed to cool for two minutes before removal of the temperature probe.
After the animals were allowed to rest for 5 hours, enough time for the EBD to be cleared from the blood, the animals were sacrificed by CO2 inhalation. Both tumors were collected, weighed and the EBD was extracted in 1.5 ml of formamide for 48 hrs at 60° C. The EBD content was then measured spectrophotometrically at 620 nm and divided by the weight of the tumor. The extravasation of EBD was then calculated as a ratio of the right (treated) to left (untreated) tumor and expressed as a thermal enhancement ratio (TER).

In data set [2] the target is T1, αvβ3 integrins (Homo sapiens, UniProt P05106+P06756).
T1 construct: endogenous in cells; host or cells: HUVEC
In words: Competitive inhibition of RGDfK-GNR binding with echistatin. In kind it is cell-based. The conditions noted are these: echistatin 50 nM co-incubation; HUVECs; 4° C. for 2 hours; binding buffer. As to the method: Confirmation of RGDfK-GNR specificity to αvβ3 integrins was performed by competitive inhibition of binding with echistatin. In brief, HUVEC cells were grown to 50% confluency on fibronectin coated cover slips. The media was then removed and replaced with cold binding buffer (20 mmol/L Tris, pH 7.4, 150 mmol/L NaCl, 2 mmol/L CaCl2, 1 mmol/L MgCl2, 1 mmol/L MnCl2, 0.1% bovine serum albumin) containing RGDfK-GNRs (10 μg/ml) and HUVECs were co-incubated at 4° C. for 2 hours with or without 50 nM echistatin (Sigma-Aldrich). Cells were then washed three times with cold binding buffer, mounted to a slide and imaged by high-resolution dark field microscopy.

Several values for one entry are separate records, joined by “and”; a condition that tells them apart may be missing. Equal values may be shown once.

Take `Cc1cc(-c2ccc(/N=N/c3ccc4c(S(=O)(=O)[O-])cc(S(=O)(=O)[O-])c(N)c4c3O)c(C)c2)ccc1/N=N/c1ccc2c(S(=O)(=O)[O-])cc(S(=O)(=O)[O-])c(N)c2c1O.[Na+].[Na+].[Na+].[Na+]` [EBD, Evans blue dye]: the “TER (EBD in treated/untreated tumor)” value in data set [1] (Laser alone (no GNRs), 1.2 W/cm^2) is 0.94 ± 0.25; in data set [1] (Laser alone (no GNRs), 1.6 W/cm^2), 1.05 ± 0.15; in data set [1] (PPTT (GNRs + laser), 1.2 W/cm^2), 1.68 and 1.68 ± 0.65; in data set [1] (PPTT (GNRs + laser), 1.6 W/cm^2, EBD 10 mg/kg i.v., 5 hours) it was 1.82 and 1.82 ± 0.40. In addition, the TER result in data set [1] (laser treatment without the presence of GNRs (power not specified)) is “around 1.0”.
On to echistatin, for which the “Inhibition of RGDfK-GNR binding to the cell's surface” value in data set [2] is “almost complete inhibition”.

These data come from patent publication US20170290915A1, “METHODS FOR DELIVERING AN ANTI-CANCER AGENT TO A TUMOR” (priority 2010, published 2017).
